For assay [1], the system named is TNFα secretion by normal human bladder smooth muscle cells. Description: TNFα ELISA of normal human bladder smooth muscle cell supernatants. The assay is classed as cell-based. Particulars: stimulus alone, no analgesic (Carbachol 10^−3 M; LPS 10 μg/ml); unstimulated <5. (In general: In an ELISA, binding on a coated surface is turned into a signal by an enzyme label.)

The subject of assay [2] is PGE2 secretion by normal human bladder smooth muscle cells. Description: PGE2 ELISA of normal human bladder smooth muscle cell supernatants. The format is cell-based. How it is done:
Prostaglandin E2 responses were analyzed by a sequential competitive ELISA (R&D Systems). More specifically, culture supernatants or PGE2 standards were added to the wells of a 96-well polystyrene microplate coated with a goat anti-mouse polyclonal antibody. After one hour incubation on a microplate shaker, an HRP-conjugated PGE2 was added and plates incubated for an additional two hours at room temperature. The plates were then washed and HRP substrate solution added to each well. The color was allowed to develop for 30 min and the reaction stopped by addition sulfuric acid before reading the plate at 450 nm with wavelength correction at 570 nm. Results are expressed as mean pg/ml of PGE2.
(§1) Normal human bladder smooth muscle cells were isolated by enzymatic digestion from macroscopically normal pieces of human bladder. Cells were expended in vitro by culture at 37° C. in a 5% CO2 atmosphere in RPMI 1640 supplemented with 10% fetal bovine serum, 15 mM HEPES, 2 mM L-glutamine, 100 U/ml penicillin, and […] of streptomycin and passage once a week by treatment with trypsin to detach cells followed by reseeding in a new culture flask. The first week of culture, the culture medium was supplemented with 0.5 ng/ml epidermal growth factor, 2 ng/ml fibroblast growth factor, and 5 μg/ml insulin.
(§2) […] When no other effectors were added to the cells, 50 μl of RPMI 1640 without fetal bovine serum were added to the wells to adjust the final volume to 200 μl.
(§3) After 24 hours of culture, 150 μl of culture supernatants were collected, spun down for 2 min at 8,000 rpm at 4° C. to remove cells and debris and stored at −70° C. for analysis of Prostaglandin E2 (PGE2) responses by ELISA. Cells were fixed, permeabilized and blocked for detection of COX2 using a fluorogenic substrate. In selected experiment cells were stimulated 12 hours in vitro for analysis of COX2, PGE2 and cytokine responses.
(§4) COX2 and PGE2 responses were analyzed as described in Example 3. Cytokine responses were analyzed as described in Example 2.

The subject of assay [3] is COX2 expression by normal human bladder smooth muscle cells. Description: Cell-based ELISA of total COX2 in normal human bladder smooth muscle cells. How it is done:
COX2 responses were analyzed by a Cell-Based ELISA using Human/mouse total COX2 immunoassay (R&D Systems), following the instructions of the manufacturer. Briefly, after cells fixation and permeabilization, a mouse anti-total COX2 and a rabbit anti-total GAPDH were added to the wells of the clear-bottom black 96-well cell culture microculture plates. After incubation and washes, an HRP-conjugated anti-mouse IgG and an AP-conjugated anti-rabbit IgG were added to the wells. Following another incubation and set of washes, the HRP- and AP-fluorogenic substrates were added. Finally, a Victor® V multilabel plate reader (PerkinElmer) was used to read the fluorescence emitted at 600 nm (COX2 fluorescence) and 450 nm (GAPDH fluorescence). Results are expressed as relative levels of total COX2 as determined by relative fluorescence unit (RFUs) and normalized to the housekeeping protein GAPDH.
as §1, §2, §3, §4

Assay [4] relates to IL-6 secretion by normal human bladder smooth muscle cells. Description: IL-6 ELISA of normal human bladder smooth muscle cell supernatants. The note with it: no analgesic. The format is cell-based. How it is done:
(§5) Culture supernatants were subjected to cytokine-specific ELISA to determine IL-1β, IL-6 and TNF-α responses in cultures of macrophages treated with analgesic, LPS alone or a combination of LPS and analgesic. The assays were performed on Nunc MaxiSorp Immunoplates (Nunc) coated overnight with 100 μl of anti-mouse IL-6, TNF-α mAbs (BD Biosciences) or IL-1β mAb (R&D Systems) in 0.1 M sodium bicarbonate buffer (pH 9.5). After two washes with PBS (200 μl per well), 200 μl of PBS 3% BSA were added in each well (blocking) and the plates incubated for 2 hours at room temperature. Plates were washed again two times by addition of 200 μl per well, 100 μl of cytokine standards and serial dilutions of culture supernatants were added in duplicate and the plates were incubated overnight at 4° C. Finally, the plates were washed twice and incubated with 100 μl of secondary biotinylated anti-mouse IL-6, TNFα mAbs (BD Biosciences) or IL-1β (R&D Systems) followed by peroxidase-labelled goat anti-biotin mAb (Vector Laboratories). The colorimetric reaction was developed by the addition of 2,2′-azino-bis(3)-ethylbenzylthiazoline-6-sulfonic acid (ABTS) substrate and H2O2 (Sigma) and the absorbance measured at 415 nm with a Victor® V multilabel plate reader (PerkinElmer).
as §1
(§6) Bladder smooth muscle cells trypsinized and seeded in microculture plates at a cell density of 3×10^4 cells per well in 100 μl were treated with analgesic solutions (50 μl/well) either alone or together carbachol (10-Molar, 50 μl/well), as an example of non-inflammatory stimuli, or lipopolysaccharide (LPS) of Salmonella typhimurium (1 μg/ml, 50 μl/well), as an example of […] stimuli. When no other effectors were added to the cells, 50 μl of RPMI 1640 without fetal bovine serum were added to the wells to adjust the final volume to 200 μl.
as §3, §4

The subject of assay [5] is expression of co-stimulatory molecules by Raw 264 macrophage cells. Description: Flow cytometry of co-stimulatory molecules CD40 and CD80 on macrophages treated with analgesic, with or without LPS. The assay is classed as cell-based, Murine. Particulars: LPS 5 ng/ml alone, no analgesic; negative control 20.6. How it is done:
Murine RAW264.7 or J774 macrophage cells (obtained from ATCC) were used in this study. Cells were maintained in a culture medium containing RPMI 1640 supplemented with 10% fetal bovine serum (FBS), 15 mM HEPES, 2 mM L-glutamine, 100 U/ml penicillin, and 100 μg/ml of streptomycin. Cells were cultured at 37° C. in a 5% CO2 atmosphere and split (passages) once a week.
RAW264.7 macrophage cells were seeded in 96-well plates at a cell density of 1.5×10^5 cells per well in 100 μl of the culture medium. […] Briefly, the analgesics were dissolved in FBS-free culture medium (i.e., RPMI 1640 supplemented with 15 mM HEPES, 2 mM L-glutamine, 100 U/ml penicillin, and 100 μg/ml of streptomycin), and diluted to desired concentrations by serial dilution with the same medium. For cells treated with analgesic in the absence of LPS, 50 μl of analgesic solution and 50 μl of FBS-free culture medium were added to each well. For cells treated with analgesic in the presence of LPS, 50 μl of analgesic solution and 50 μl of LPS (from Salmonella typhimurium) in FBS-free culture medium were added to each well. All conditions were tested in duplicates.
After 24 or 48 hours of culture, 150 μl of culture supernatants were collected, spun down for 2 min at 8,000 rpm at 4° C. to remove cells and debris and stored at −70° C. for analysis of cytokine responses by ELISA. The cells were collected and washed by centrifugation (5 min at 1,500 rpm at 4° C.) in 500 μl of Phosphate buffer (PBS). Half of the cells were then snap frozen in liquid nitrogen and stored at −70° C. The remaining cells were stained with fluorescent monoclonal antibodies and analyzed by flow cytometry.
For flow cytometry analysis, macrophages were diluted in 100 μl of FACS buffer (phosphate buffered saline (PBS) with 2% bovine serum albumin (BSA) and 0.01% NaN3) and stained 30 min at 4° C. by addition of FITC-conjugated anti-CD40, PE-conjugated anti-CD80, PE-conjugated anti-CD86 antibody, anti MHC class II (I-A^d) PE (BD Bioscience). Cells were then washed by centrifugation (5 min at 1,500 rpm at 4° C.) in 300 μl of FACS buffer. After a second wash, cells were re-suspended in 200 μl of FACS buffer and the percentage of cells expressing a given marker (single positive), or a combination of markers (double positive) were analyzed with the aid of an Accuri C6 flow cytometer (BD Biosciences).

Assay [6] relates to TNFα secretion by normal human bladder smooth muscle cells. Description: TNFα ELISA of normal human bladder smooth muscle cell supernatants. The format is cell-based. The note with it: no analgesic. How it is done:
as §5, §1, §6, §3, §4

Assay [7] deals with IL-6 secretion by normal human bladder smooth muscle cells. Description: IL-6 ELISA of normal human bladder smooth muscle cell supernatants. Particulars: stimulus alone, no analgesic (Carbachol 10^−3 M; LPS 10 μg/ml); unstimulated <5. The format is cell-based.
Where [8] appears, read: stimulus alone, no analgesic (Carbachol 10^−3 M; LPS 10 μg/ml), unstimulated <20.5.

Regarding lipopolysaccharide [LPS], in assay [1], the “TNFα (pg/ml) Subject 1” value worked out at 5725 pg/mL and the “TNFα (pg/ml) Subject 2” value turned out to be 4107 pg/mL. Further, the “PGE2 production in response to stimulus alone” value in assay [2] (no analgesic) was “induced production of PGE2”. In assay [2] (setting [8]), the “PGE2 levels (pg/ml) Subject 1” value was 1125 pg/mL and the “PGE2 levels (pg/ml) Subject 2” value came to 998 pg/mL. Also, the “COX2 responses to stimulus alone” value in assay [3] (no analgesic) is reported as “higher levels of COX2 responses”. Moreover, in assay [3] (stimulus alone, no analgesic (Carbachol 10^−3 M; LPS 10 μg/ml), unstimulated 199), the “Total COX2 levels (Normalized RFUs) subject 2” value stood at 633 Normalized RFUs. Further, in assay [3] (stimulus alone, no analgesic (Carbachol 10^−3 M; LPS 10 μg/ml), unstimulated 230), the “Total COX2 levels (Normalized RFUs) subject 1” value came to 672 Normalized RFUs. Also, the “IL-6 responses to stimulus alone” value in assay [4] is on record as “massive induction”. Besides, the “% Positive CD40+CD80+” value in assay [5] was found to be 77.8%. Also, the “TNFα responses to stimulus alone” value in assay [6] is recorded as “massive induction”. In assay [7], the “IL-6 (pg/ml) Subject 1” value was found to be 4838 pg/mL and the “IL-6 (pg/ml) Subject 2” value was 4383 pg/mL.

Source of the values: patent US10596127B2, “Composition for reducing the frequency of urination, method of making and use thereof” (WELLESLEY PHARMACEUTICALS, LLC, priority 2013, dated 2020).
